Experimental data from publication PMC6680510, “Benzotriazine Di-Oxide Prodrugs for Exploiting Hypoxia and Low Extracellular pH in Tumors” (Molecules, 2019).
Where “and” joins values, the source holds several entries; their conditions need not be identical. Equal values may be shown once. Read-outs that look alike come from different tables or passages of the source.

Legend:
SiHa cells [1] = test: Metabolism and uptake of ester 4b in anoxic single cell suspensions; type: in vitro ADME; details: anoxic SiHa suspensions after addition of 4b (150 μM), at 30 min
Description: If the anionic sidechain of the BTO acids results in low intracellular concentrations, with reductive metabolism occurring largely at the cell surface, the corresponding esters would be expected to provide improved delivery to the intracellular compartment (consistent with their higher cytotoxic potencies, as noted in Section 2.5). To test this, we compared the metabolism of ester 4b (Figure 7A) with its corresponding acid 4a (Figure 7B) by monitoring extracellular concentrations in anoxic SiHa suspensions. The rates of metabolism of both compounds were unaffected by pHe, consistent with the results for 4a in Figure 5B. The ester was metabolized more rapidly than the acid, with only a trace of acid 4a detected transiently as an extracellular metabolite (Figure 7A). The major metabolites were the less polar 1-oxide, 15a, and the 1-oxide of the ester, 16a. In separate experiments with higher initial concentrations of 4b, 15a was again the main extracellular metabolite (Figure 7C, left). […] Compound 4b itself was not detected in the intracellular samples, presumably reflecting a lack of retention in cells and the very low intracellular volume, which will compromise analytical sensitivity (only 2 × 10^6 cells were collected for each analysis in this experiment).
Figure 7 Metabolism of BTO ester 4b and the corresponding acid 4a by anoxic SiHa single cell suspensions (2 × 10^6 cells/mL). (A) Extracellular concentrations following the addition of 4b (50 μM). (B) Extracellular concentrations following the addition of 4a (50 μM). (C) Extracellular (left) and intracellular (right) concentrations following the addition of 4b (150 μM). Values are means and errors are SEM for 3 replicate cultures.

SiHa cells [2] = test: IC50 assay (inhibition of proliferation, 4 h exposure, SRB); details: SiHa; for IC50: Homo sapiens, 4 h
Outline: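 Cells exposed to compound for 4 h in titrated medium, then washed and regrown 5 days under standard conditions (oxia, pHe 7.4). Growth read by sulforhodamine B staining; IC50 from 4-parameter logistic regression of duplicate cultures.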

SiHa and SiHa/POR cells = test: IC50 in SiHa versus SiHa/POR cultures under anoxia; type: cell-based; details: 4 h under anoxia, pHe 7.4
Procedure: The lack of effect of POR over-expression on the reductive metabolism of the BTO acids in intact cells led us to compare the cytotoxicities of SN30000 (2), 4a, and 7a in SiHa/POR, and the parental line, under anoxia (Figure 6).
Drug exposure was for 4 h under anoxia, at pHe 7.4, with regrowth under aerobic conditions for 5 days before staining with SRB. Values are means and SEM for the two experiments, each with triplicate cultures at each drug concentration. TEXT PRINTED IN THE PICTURE: Cmpd 2: Ratio 6.75 ± 0.20 | Cmpd 4a: Ratio 3.40 ± 0.22 | Cmpd 7a: Ratio 2.67 ± 0.46

UT-SCC-74B cells = test: IC50 assay (inhibition of proliferation, 4 h exposure, SRB); type: cell-based; details: UT-SCC-74B, UT-SCC-74B; for IC50: Homo sapiens, 4 h
Procedure: Cells were seeded in 96-well plates (SiHa or FaDu 1500 cells/well, UT-SCC-74B 800 cells/well) in 100 μL. After incubation for 2 h, the drugs were added in 50 μL of the same titrated medium at 3× the final concentration to duplicate the wells. After a further 4 h the plates were checked for drug precipitation using a phase contrast microscope, then drugs were removed by aspirating and washing with the standard (pH 7.4) medium, then aspirating again and adding 150 μL of the medium. Cultures were then grown for 5 days before staining with sulphorhodamine B and measuring absorbance, with the estimation of IC50 values using 4-parameter logistic regression, as previously carried out.
The medium and plasticware was equilibrated in the chamber for 3 days prior to use. In the anoxia experiments, FaDu cells were plated in poly-L-lysine coated plates (Corning Cat # 356461) to improve attachment. […]
Footnotes: a Number of experiments. b Anoxic cytotoxicity ratio = oxic IC50/anoxic IC50. c pH
cytotoxicity ratio = IC50 at pHe 7.4/ IC50 at pHe 6.5. d Overall ratio = oxic IC50 pHe 7.4 / anoxic IC50 pHe
6.5. Values are means and errors are SEM. For ratios, the errors are root mean square SEM. […]

SiHa cells [3] = test: Effect of phenylpyruvate (MCT pan-inhibition) on cytotoxicity under anoxia; details: anoxic SiHa cells
Procedure: Effect of phenylpyruvate (PPV, 100 or 500 μM) on proliferation of SiHa cells following 4 h
exposure under anoxia to PPV alone (A) or with cmpd 4a at pHe 7.4 (B) or pHe 6.5 (C). 3000 cells/well
were seeded in 96 well plates, and IC 50 values determined as in Figure S6. Each data point is mean ±
SEM for three replicate cultures in the same experiment.

[4] = tested on: MDCK-II cells with forced expression of BCRP or Pgp; test: IC50 under anoxia in cells with forced expression of efflux transporters; details: MDCK-II cell lines under anoxia, preliminary experiments
Procedure: expression of BCRP or Pgp.
Cells were seeded at 300 cells/well in DMEM with 10% FBS in 96 well plates in an
anaerobic chamber, allowed to attach for 2 h then exposed to drugs for 4 h under anoxia. Cells were
then washed with fresh medium and grown for 5 days under aerobic conditions before staining with
SRB. Values are mean ± SEM from 2 separate experiments.

[5] = Solubility in AlphaMEM + 5% FBS, pH 7.4; details: culture medium (AlphaMEM + 5% FBS), pH 7.4, plasma or biological fluid, kinetic from dmso stock
SiHa cells [6] = test: Cellular uptake in stirred aerobic single cell suspensions (HPLC, 3H-mannitol correction)
Procedure: In these experiments, cell pellets were collected by centrifugation and ^3H-mannitol was used as a cell-excluded marker to enable correction for the entrapped extracellular medium.
Log-phase cultures were dissociated with trypsin/EDTA, followed by the addition of the medium with DNAase I (Sigma DN-25) at 100 μg/mL for 5 min at 37 °C to minimize clumping. The cell pellets were collected by centrifugation and resuspended in αMEM with 5% FBS at pH 7.4 or 6.5 to 2 × 10^6 cells/mL. Samples (12 mL) were equilibrated with magnetic stirring at 37 °C under flowing humidified 5% CO2/air or N2 (50–100 mL/min), as previously described [86]. After equilibration for 60 min, the compounds were added in 50 μL of DMSO. The samples (5 mL) were withdrawn 5 and 60 min later, where the cell pellets were then collected by centrifugation and 4 mL of the supernatant was discarded. The pellets were resuspended in the remaining 1 mL, transferred to microcentrifuge tubes containing 7 μL ^3H-mannitol (740 GBq/mmol, American Radiolabeled Chemicals Inc., St. Louis, MO) as an extracellular marker, and then centrifuged (11,000g × 30s). The supernatant was removed and frozen at −80 °C (extracellular samples) and the tubes were centrifuged again, and any remaining medium was carefully removed. Ice-cold MeOH (80 μL) was added to the pellets which were disrupted by pipetting and stored at −80 °C (intracellular samples). When these were thawed for HPLC analysis (Section 4.12), the volume of extracellular water trapped in the pellets was determined by the scintillation counting (PerkinElmer Tri-Carb B2910TR Liquid Scintillation) of 25 μL of each extracellular and intracellular sample in 3 mL of Emulsifier-Safe™ scintillation cocktail (PerkinElmer). The extracellular volume in each intracellular sample was used to correct the intracellular drug concentration as previously described [87].
The samples were analyzed using an Agilent 1200 HPLC with a diode array absorbance detector and autosampler maintained at 4 °C (Agilent Technologies). The frozen samples were thawed, then centrifuged (11,000g × 5 min), and then extracellular samples were injected directly (typically 20 μL), while for the intracellular samples 30 μL was mixed 1:1 with αMEM and 50 μL was injected. […] All calibration curves were linear (R^2 > 0.999). The column was an Agilent ZORBAX Eclipse (XDB-C18, 5u, 2.1 × 150 mm, Agilent Technologies) with a flow rate of 0.4 mL/min. For SN30000 (2), the mobile phase was a mixture of 80% MeCN/water v/v (A), and a 45 mM formate buffer at a pH 4.5, eluting with a linear gradient of 5–100% A over 18 min. The same method was used for the BTO acids, except for 4a, where the aqueous mobile phase pH was reduced to 3.5.
Values are mean and SEM for 3 replicates. ND: Not detected.

FaDu cells = test: IC50 assay (inhibition of proliferation, 4 h exposure, SRB); type: cell-based; details: for IC50: Homo sapiens, 4 h

## O=C(O)CCc1n[n+]([O-])c2ccccc2[n+]1[O-] [Compound 4a, 3-(2-Carboxyethyl)benzo[e][1,2,4]triazine 1,4-Dioxide]
SiHa cells [1]
  Maximum intracellular concentration: 4.1 mM
SiHa cells [2]; read-out: Anoxic IC50, SiHa, pHe 6.5, 4 h, anoxic
  IC50: 97 ± 4 µM
SiHa cells [2]; read-out: Anoxic IC50, SiHa, pHe 7.4, 4 h, anoxic
  IC50: 259 ± 26 µM
SiHa cells [2]; read-out: Oxic IC50, SiHa, pHe 6.5, 4 h, oxic
  IC50: 798 ± 43 µM
SiHa cells [2]; read-out: Oxic IC50, SiHa, pHe 7.4, 4 h, oxic
  IC50: 1950 ± 170 µM
SiHa cells [2]
  TMR (overall TME ratio = oxic IC50 pHe 7.4/anoxic IC50 pHe 6.5): 20.2 ± 2.0
SiHa cells [2]; anoxic
  PCR Anoxic (IC50 at pHe 7.4/IC50 at pHe 6.5): 2.68 ± 0.29
SiHa cells [2]; oxic
  PCR oxic (IC50 at pHe 7.4/IC50 at pHe 6.5): 2.45 ± 0.25
SiHa cells [2]; pHe 6.5
  ACR (anoxic cytotoxicity ratio = oxic IC50/anoxic IC50): 8.26 ± 0.58
SiHa cells [2]; pHe 6.5 under anoxia, representative experiment
  IC50 fold higher than for SN30000: approximately 50 fold
SiHa cells [2]; pHe 7.4
  ACR (anoxic cytotoxicity ratio = oxic IC50/anoxic IC50): 7.54 ± 1.00
SiHa cells [2]; representative experiment (Figure 3), oxia and anoxia
  PCR (pH cytotoxicity ratio): ~ 2.5
SiHa cells [2]; representative experiment (Figure 3), pHe 7.4 and 6.5
  ACR (anoxia cytotoxicity ratio): ~ 8
SiHa and SiHa/POR cells
  IC50 ratio SiHa / SiHa/POR (fold lower IC50 in POR cell line): 3.40 ± 0.22 and 3.4
UT-SCC-74B cells; pHe 6.5, 4 h, 20% O2, read-out: Oxic IC50
  IC50: 297 ± 74 µM
UT-SCC-74B cells; pHe 6.5, 4 h, <0.01% O2, read-out: Anoxic IC50
  IC50: 97.6 ± 12.3 µM
UT-SCC-74B cells; pHe 7.4, 4 h, 20% O2, read-out: Oxic IC50
  IC50: 863 ± 66 µM
UT-SCC-74B cells; pHe 7.4, 4 h, <0.01% O2, read-out: Anoxic IC50
  IC50: 225 ± 26 µM
UT-SCC-74B cells
  TME ratio (oxic IC50 pHe 7.4/anoxic IC50 pHe 6.5): 8.84 ± 1.30
UT-SCC-74B cells; anoxic
  PCR Anoxic (IC50 at pHe 7.4/IC50 at pHe 6.5): 2.31 ± 0.39 and 2.9
UT-SCC-74B cells; oxic
  PCR oxic (IC50 at pHe 7.4/IC50 at pHe 6.5): 2.91 ± 0.76 and 2.3
UT-SCC-74B cells; pHe 6.5
  ACR (oxic IC50/anoxic IC50): 3.04 ± 0.85
UT-SCC-74B cells; pHe 7.4
  ACR (oxic IC50/anoxic IC50): 3.84 ± 0.53
SiHa cells [3]
  Effect of pan-inhibition of MCT by phenylpyruvate on sensitivity: no effect
[4]
  Effect of overexpression of BCRP or Pgp efflux transporters on sensitivity: no effect
[5]
  solubility: 17.1 mM
SiHa cells [6]; SiHa cell suspensions, data not shown
  Uptake (Ci/Ce) at 4 °C relative to 37 °C: undetectable
SiHa cells [6]; aerobic SiHa suspensions, pHe 6.5, 5 min
  Ci/Ce, pHe 6.5 Obs 5 min: <0.1
SiHa cells [6]; aerobic SiHa suspensions, pHe 6.5, 60 min
  Ci/Ce, pHe 6.5 Obs 60 min: <0.1
SiHa cells [6]; aerobic SiHa suspensions, pHe 7.4, 5 min
  Ci/Ce, pHe 7.4 Obs 5 min: <0.1
SiHa cells [6]; aerobic SiHa suspensions, pHe 7.4, 60 min
  Ci/Ce, pHe 7.4 Obs 60 min: <0.1
FaDu cells
  TMR (oxic IC50 pHe 7.4/anoxic IC50 pHe 6.5): 9.36 ± 1.68
FaDu cells; pHe 6.5, 4 h, anoxic, read-out: Anoxic IC50
  IC50: 142 ± 21 µM
FaDu cells; pHe 6.5, 4 h, oxic, read-out: Oxic IC50
  IC50: 507 ± 27 µM
FaDu cells; pHe 7.4, 4 h, anoxic, read-out: Anoxic IC50
  IC50: 325 ± 18 µM
FaDu cells; pHe 7.4, 4 h, oxic, read-out: Oxic IC50
  IC50: 1330 ± 136 µM
FaDu cells; anoxic
  PCR Anoxic (IC50 at pHe 7.4/IC50 at pHe 6.5): 2.29 ± 0.36
FaDu cells; oxic
  PCR oxic (IC50 at pHe 7.4/IC50 at pHe 6.5): 2.62 ± 0.30
FaDu cells; pHe 6.5
  ACR (oxic IC50/anoxic IC50): 3.58 ± 0.56
FaDu cells; pHe 7.4
  ACR (oxic IC50/anoxic IC50): 4.08 ± 0.48
